In US7964624B1, “Inhibitors of serine proteases” (priority 2005, dated 2011):

Columns and labels:
HCV NS3 protease domain = target: T1, HCV NS3 protease domain (Hepatitis C virus genotype 1b, UniProt Q9WMX2); test: biochemical; settings: Enzyme Assay 1 (HCV NS3 Protease Domain Peptide Cleavage Assay) activity, apparent Ki class
T1 construct: The first 181 amino acids of NS3 (residues 1027-1207 of the viral polyprotein); hexa-histidine (C); made in house; host or cells: E. coli BL21/DE3 pLysS

[1] = target: T2, full-length hepatitis C viral protein NS3•4A (Hepatitis C virus genotype 1a, UniProt P27958); test: biochemical; parameters: species or system HCV sub-type strain 1a; settings: Enzyme Assay 2 (HCV NS3 Peptide Cleavage Assay) activity, apparent Ki class
T2 construct: hexa-histidine (N); made in house; host or cells: Sf9 insect cells (baculovirus, pVL1392)

Row | Structure (SMILES) | Ki (HCV NS3 protease domain) [nM] | Ki [1] [nM]
1 | CCC[C@H](NC(=O)[C@@H]1C[C@]2(CC(c3cc(Cl)c4c(c3)OCCN4C)=NO2)CN1C(=O)[C@@H](NC(=O)CC1CCCCC1)C(C)(C)C)C(=O)C(=O)NC1CC1 [Compound 315] | < 100 | < 100
2 | CC(C)(C)OC(=O)N[C@H]1CCCCC/C=C\[C@@H]2C[C@@]2(C(=O)O)NC(=O)[C@@H]2C[C@]3(CC(C(=O)c4ccccc4)=NO3)CN2C1=O [Compound 320] | > 500 | > 500
3 | CCC[C@H](NC(=O)[C@@H]1C[C@]2(CC(c3cc(Cl)cc(OC)c3OC)=NO2)CN1C(=O)[C@@H](NC(=O)CC1CCCCC1)C(C)(C)C)C(=O)C(=O)NC1CC1 [Compound 321] | 100 to 500 | < 100
4 | CCC[C@H](NC(=O)[C@@H]1C[C@]2(CC(c3cc(Cl)c(OC)cc3OC)=NO2)CN1C(=O)[C@@H](NC(=O)CC1CCOCC1)C(C)(C)C)C(=O)C(=O)NC1CC1 [Compound 326] | 100 to 500 | 100 to 500
5 | CCC[C@H](NC(=O)[C@@H]1C[C@]2(CC(c3cccc(Cl)c3)=NO2)CN1C(=O)c1cccc(S(=O)(=O)N2CCc3ccccc3C2)c1)C(=O)C(=O)NC1CC1 [Compound 328] | > 500 | > 500
6 | CCC[C@H](NC(=O)[C@@H]1C[C@]2(CC(c3cccc(Cl)c3)=NO2)CN1C(=O)[C@H](Cc1ccc(OC(C)C)cc1)NC(C)=O)C(=O)C(=O)NC1CC1 [Compound 332] | > 500 | 100 to 500
7 | CCC[C@H](NC(=O)[C@@H]1C[C@]2(CC(c3cccc(Cl)c3)=NO2)CN1C(=O)[C@H](Cc1csc2ccccc12)NC(=O)CC1CCCCC1)C(=O)C(=O)NC1CC1 [Compound 336] | > 500 | > 500
8 | CCC[C@H](NC(=O)[C@@H]1C[C@]2(CC(c3cccc(Cl)c3)=NO2)CN1C(=O)[C@H](Cc1ccccc1F)NC(=O)CC1CCCCC1)C(=O)C(=O)NC1CC1 [Compound 338] | > 500 | 100 to 500
9 | CCC[C@H](NC(=O)[C@@H]1C[C@]2(CC(c3cccc(Cl)c3)=NO2)CN1C(=O)[C@@H](NC(=O)Cc1cncc(Br)c1)C(C)(C)C)C(=O)C(=O)NC1CC1 [Compound 339] | 100 to 500 | < 100
10 | CCC[C@H](NC(=O)[C@@H]1C[C@]2(CC(c3cccc(Cl)c3)=NO2)CN1C(=O)[C@@H](NC(=O)CC1CCCCC1)C(C)(C)C)C(=O)C(=O)N1CCC[C@@H]1COC [Compound 347] | > 500 | > 500
11 | CCC[C@H](NC(=O)[C@@H]1C[C@]2(CC(c3cccc(Cl)c3)=NO2)CN1C(=O)[C@@H](NC(=O)CC1CCCCC1)C(C)(C)C)C(=O)C(=O)N(C)CCC [Compound 350] | > 500 | > 500
12 | CCC[C@H](NC(=O)[C@@H]1C[C@]2(CC(c3cccc(Cl)c3)=NO2)CN1C(=O)CC(C)(C)C)C(=O)C(=O)NC1CC1 [Compound 351] | > 500 | > 500
13 | CCC[C@H](NC(=O)[C@@H]1C[C@]2(CC(c3cccc(Cl)c3)=NO2)CN1C(=O)[C@@H](NC(=O)CC1CCC(C)CC1)C(C)(C)C)C(=O)C(=O)NC1CC1 (stereo partly shown) [Compound 361] | 100 to 500 | < 100
14 | CCC[C@H](NC(=O)[C@@H]1C[C@]2(CC(c3cc(C)c(OC)c(C)c3)=NO2)CN1C(=O)[C@@H](NC(=O)CC1CCCCC1)C(C)(C)C)C(=O)C(=O)NC1CC1 [Compound 362] | 100 to 500 | < 100
15 | CCC[C@H](NC(=O)[C@@H]1C[C@]2(CC(c3cc(Cl)c(OC)cc3C)=NO2)CN1C(=O)[C@@H](NC(=O)CC1CCCCC1)C(C)(C)C)C(=O)C(=O)NC1CC1 [Compound 366] | 100 to 500 | < 100
16 | CCC[C@H](NC(=O)[C@@H]1C[C@]2(CC(c3cc(Cl)c4c(c3)OCO4)=NO2)CN1C(=O)[C@@H](NC(=O)CC1CCCCC1)C(C)(C)C)C(=O)C(=O)NC1CC1 [Compound 370] | 100 to 500 | < 100
17 | CCC[C@H](NC(=O)[C@@H]1C[C@]2(CC(c3cccc(Cl)c3)=NO2)CN1C(=O)[C@@H](NC(=O)CC1CCCCC1)C(C)(C)C)C(=O)C(=O)NC1CCCC1 [Compound 372] | 100 to 500 | 100 to 500
